From US20220388964A1 (HiberCell, Inc., priority 2019, published 2022) come the findings set out here.

pIC50: −log10 of the molar value.

By pIC50 is commonly meant the IC50 on a negative log10 scale, so that one unit is a factor of ten. A higher pIC50 goes with a low IC50.

For the test, the target named is GCN2 (Homo sapiens, UniProt Q9P2K8). The experiment in a line: TR-FRET biochemical assay for inhibition of GCN2 (Example 106, for Example 1-4BB).
Sequence of GCN2 (Q9P2K8 whole entry): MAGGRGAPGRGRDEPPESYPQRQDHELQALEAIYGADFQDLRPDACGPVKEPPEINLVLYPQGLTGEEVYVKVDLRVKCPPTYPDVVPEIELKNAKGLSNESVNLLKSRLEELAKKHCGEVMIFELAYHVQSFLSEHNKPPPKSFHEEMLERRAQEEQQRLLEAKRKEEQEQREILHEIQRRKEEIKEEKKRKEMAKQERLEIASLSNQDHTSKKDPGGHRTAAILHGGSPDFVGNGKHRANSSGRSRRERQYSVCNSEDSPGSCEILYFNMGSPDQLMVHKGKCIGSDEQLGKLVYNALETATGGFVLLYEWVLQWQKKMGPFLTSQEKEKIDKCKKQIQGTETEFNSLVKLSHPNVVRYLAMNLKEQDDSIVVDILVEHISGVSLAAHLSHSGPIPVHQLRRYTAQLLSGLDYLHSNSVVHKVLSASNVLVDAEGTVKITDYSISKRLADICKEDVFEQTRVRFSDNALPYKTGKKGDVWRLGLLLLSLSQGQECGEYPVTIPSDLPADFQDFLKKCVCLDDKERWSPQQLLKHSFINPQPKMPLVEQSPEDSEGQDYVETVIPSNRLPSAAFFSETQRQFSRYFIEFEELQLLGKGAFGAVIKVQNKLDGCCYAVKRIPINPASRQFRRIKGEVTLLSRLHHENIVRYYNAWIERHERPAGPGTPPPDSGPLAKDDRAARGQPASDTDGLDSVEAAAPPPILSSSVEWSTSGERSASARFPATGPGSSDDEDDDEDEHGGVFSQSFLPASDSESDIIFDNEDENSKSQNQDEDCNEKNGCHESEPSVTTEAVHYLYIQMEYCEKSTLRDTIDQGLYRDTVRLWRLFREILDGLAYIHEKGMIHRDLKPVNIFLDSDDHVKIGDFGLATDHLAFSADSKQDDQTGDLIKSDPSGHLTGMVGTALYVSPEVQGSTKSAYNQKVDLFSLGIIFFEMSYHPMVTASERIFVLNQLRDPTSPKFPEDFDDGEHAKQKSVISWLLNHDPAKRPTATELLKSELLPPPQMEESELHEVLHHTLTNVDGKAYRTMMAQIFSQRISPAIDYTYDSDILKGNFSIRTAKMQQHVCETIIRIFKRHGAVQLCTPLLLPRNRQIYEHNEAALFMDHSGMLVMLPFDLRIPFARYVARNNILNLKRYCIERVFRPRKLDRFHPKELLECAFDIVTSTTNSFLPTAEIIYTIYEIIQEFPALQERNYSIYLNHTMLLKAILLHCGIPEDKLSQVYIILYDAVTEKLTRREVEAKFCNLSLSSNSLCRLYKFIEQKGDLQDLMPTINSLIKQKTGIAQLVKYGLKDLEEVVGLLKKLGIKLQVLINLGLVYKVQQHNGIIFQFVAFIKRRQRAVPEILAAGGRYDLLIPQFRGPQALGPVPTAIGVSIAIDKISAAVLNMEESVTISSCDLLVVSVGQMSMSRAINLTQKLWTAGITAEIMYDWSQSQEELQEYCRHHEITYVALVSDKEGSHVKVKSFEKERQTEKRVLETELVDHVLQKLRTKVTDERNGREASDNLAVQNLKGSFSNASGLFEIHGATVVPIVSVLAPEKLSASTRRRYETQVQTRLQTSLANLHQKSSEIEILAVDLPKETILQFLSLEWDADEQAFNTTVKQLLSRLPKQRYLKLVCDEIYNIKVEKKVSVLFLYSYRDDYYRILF

In the case of `COc1ncc(C#N)cc1S(=O)(=O)Nc1ccc(F)c(-c2ccc3c(-c4ncc[nH]4)n[nH]c3c2F)c1F` [Example 3DJ, 5-cyano-N-(2,4-difluoro-3-(7-fluoro-3-(1H-imidazol-2-yl)-1H-indazol-6-yl)phenyl)-2-methoxypyridine-3-sulfonamide], the pIC50 (Table 9) is over 6.30. Regarding `Cc1ccc(C)c(S(=O)(=O)Nc2ccc(F)c(-c3ccc4c(-c5ncc[nH]5)n[nH]c4c3F)c2F)c1` [Example 2BI, N-(2,4-difluoro-3-(7-fluoro-3-(1H-imidazol-2-yl)-1H-indazol-6-yl)phenyl)-2,5-dimethylbenzenesulfonamide], the negative logarithm of the IC50 (pIC50) (Table 8) was over 6.30. On the same count and under the same terms, under `Cc1ccc(S(=O)(=O)Nc2ccc(F)c(-c3ccc4c(-c5ncc[nH]5)n[nH]c4c3F)c2F)c(C)n1` [Example 2AA, N-(2,4-difluoro-3-(7-fluoro-3-(1H-imidazol-2-yl)-1H-indazol-6-yl)phenyl)-2,6-dimethyl-pyridine-3-sulfonamide] stands over 6.30. In the case of `COc1ncc(F)cc1S(=O)(=O)Nc1ccc(F)c(-c2ccc3c(C(=O)NC[C@@H](O)CO)n[nH]c3c2F)c1F` [Example 3AH, 6-(2,6-difluoro-3-((5-fluoro-2-methoxypyridine)-3-sulfonamido)phenyl)-N-((R)-2,3-dihydroxypropyl)-7-fluoro-1H-indazole-3-carboxamide], the negative logarithm of the IC50 (pIC50) (Table 9) is over 6.30. In the case of `Cc1ccc(F)cc1S(=O)(=O)Nc1ncc(F)c(-c2ccc3c(-c4ncc[nH]4)n[nH]c3c2F)c1F` [Example 30, N-(3,5-Difluoro-4-(7-fluoro-3-(1H-imidazol-2-yl)-1H-indazol-6-yl)pyridin-2-yl)-5-fluoro-2-methylbenzenesulfonamide], the negative-log IC50 (pIC50) (Table 9) is over 6.30. Molecule `NC(=O)c1n[nH]c2c(F)c(-c3c(F)ccc(NS(=O)(=O)c4cccn5ccnc45)c3F)ccc12` [Example 3AA, 6-(2,6-difluoro-3-(imidazo-[1,2-a]pyridine-8-sulfon-amido)phenyl)-7-fluoro-1H-indazole-3-carboxamide] had a pIC50 (Table 9) of 5.00 to 5.60. On the same count and under the same terms, under `COc1ncc(F)cc1S(=O)(=O)Nc1ccc(F)c(-c2ccc3c(C(=O)NCC#N)n[nH]c3c2F)c1F` [Example 3AW, N-(cyanomethyl)-6-(2,6-difluoro-3-((5-fluoro-2-methoxypyridine)-3-sulfon-amido)phenyl)-7-fluoro-1H-indazole-3-carboxamide] stands over 6.30. Consider `COc1ncc(Cl)cc1S(=O)(=O)Nc1ccc(F)c(-c2ccc3c(C(=O)NC(C)C)n[nH]c3c2F)c1F` [Example 2CK, 6-(3-((5-chloro-2-methoxy-pyridine)-3-sulfonamido)-2,6-difluorophenyl)-7-fluoro-N-isopropyl-1H-indazole-3-carboxamide], for which the pIC50 (Table 8) was over 6.30.

In turn, `NC(=O)c1n[nH]c2c(F)c(-c3c(F)ccc(NS(=O)(=O)c4cc(F)cc5c4CCC5O)c3F)ccc12` (centres unmarked) [Example 4R] had a pIC50 (Table 9) of over 6.30. On the same count and under the same terms, under `COc1cccc(-c2n[nH]c3c(F)c(-c4c(F)ccc(NS(=O)(=O)c5cc(F)cnc5C)c4F)ccc23)n1` [Example 14, N-(2,4-Difluoro-3-(7-fluoro-3-(6-methoxypyridin-2-yl)-1H-indazol-6-yl)phenyl)-5-fluoro-2-methylpyridine-3-sulfonamide] stands 5.60 to 6.30. `COc1nc(C)c(Cl)cc1S(=O)(=O)Nc1ccc(F)c(-c2ccc3c(C(=O)NCCCN(C)C)n[nH]c3c2F)c1F` [Example 3DN, 6-(3-((5-chloro-2-methoxy-6-methylpyridine)-3-sulfon-amido)-2,6-difluorophenyl)-N-(3-(dimethylamino)propyl)-7-fluoro-1H-indazole-3-carboxamide] showed a negative logarithm of the IC50 (pIC50) (Table 9) of over 6.30. `COc1ncc(C#N)cc1S(=O)(=O)Nc1ccc(F)c(-c2ccc3c(C(=O)NCCCN(C)C)n[nH]c3c2F)c1F` [Example 3BU, 6-(3-((5-cyano-2-methoxy-pyridine)-3-sulfonamido)-2,6-difluorophenyl)-N-(3-(dimethylamino)propyl)-7-fluoro-1H-indazole-3-carboxamide]: the negative-log IC50 (pIC50) (Table 9) was 5.60 to 6.30. Consider `COc1ncc(F)cc1S(=O)(=O)Nc1ccc(F)c(-c2ccc3c(C(N)=O)n[nH]c3c2F)c1F` [Example 3T, 6-(2,6-difluoro-3-((5-fluoro-2-methoxypyridine)-3-sulfonamido)phenyl)-7-fluoro-1H-indazole-3-carboxamide], for which the pIC50 (Table 9) was over 6.30. Where the note is “Table 9”, `COc1ncc(Cl)cc1S(=O)(=O)Nc1cc(F)cc(-c2ccc3c(C(=O)NCCCN(C)C)n[nH]c3c2F)c1F` [Example 3BB, 6-(3-((5-chloro-2-methoxy-pyridine)-3-sulfonamido)-2,5-difluorophenyl)-N-(3-(dimethylamino)propyl)-7-fluoro-1H-indazole-3-carboxamide] showed a pIC50 of over 6.30. For `O=S(=O)(Nc1ccc(F)c(-c2ccc3c(-c4ncc[nH]4)n[nH]c3c2F)c1F)c1cc(Cl)ccc1Cl` [Example 2AX, 2,5-dichloro-N-(2,4-difluoro-3-(7-fluoro-3-(1H-imidazol-2-yl)-1H-indazol-6-yl)phenyl)-benzenesulfonamide], the pIC50 (Table 8) was over 6.30. In the case of `O=S(=O)(Nc1ccc(F)c(-c2ccc3c(-c4ncc[nH]4)n[nH]c3c2F)c1F)c1ccc(F)cc1Cl` [Example 2BS], the negative-log IC50 (pIC50) (Table 8) is over 6.30. Regarding `COc1ncc(Cl)cc1S(=O)(=O)Nc1ccc(F)c(-c2ccc3c(C(=O)N[C@H]4CCN(C)C4)n[nH]c3c2F)c1F` [Example 3AF, 6-(3-((5-chloro-2-methoxy-pyridine)-3-sulfonamido)-2,6-difluorophenyl)-7-fluoro-N-((S)-1-methylpyrrolidin-3-yl)-1H-indazole-3-carboxamide], the negative-log IC50 (pIC50) (Table 9) is over 6.30.

On to `COc1ccc(NS(=O)(=O)c2cc(F)cnc2OC)c(F)c1-c1ccc2c(C(=O)NCCCO)n[nH]c2c1F` [Example 25, 7-Fluoro-6-(2-fluoro-3-((5-fluoro-2-methoxypyridine)-3-sulfonamido)-6-methoxyphenyl)-N-(3-hydroxypropyl)-1H-indazole-3-carboxamide], for which the negative-log IC50 (pIC50) (Table 9) is 5.00 to 5.60. Turning to `COc1ncc(F)cc1S(=O)(=O)Nc1cccc(-c2ccc3c(-c4ncc[nH]4)n[nH]c3c2C)c1F` [Example 22, N-(3-(3-(1H-Imidazol-2-yl)-7-methyl-1H-indazol-6-yl)-2-fluorophenyl)-5-fluoro-2-methoxypyridine-3-sulfonamide], the pIC50 (Table 9) is 5.60 to 6.30.

For `NC(=O)c1n[nH]c2c(F)c(-c3c(F)ccc(NS(=O)(=O)c4cc(F)cc5c4CCC5=O)c3F)ccc12` [Example 4S], the pIC50 (Table 9) is over 6.30. `COc1ncc(Cl)cc1S(=O)(=O)Nc1ccc(F)c(-c2ccc3c(C(=O)Nc4nnn(C)n4)n[nH]c3c2F)c1F` [Example 3CZ, 6-(3-((5-chloro-2-methoxy-pyridine)-3-sulfonamido)-2,6-difluorophenyl)-7-fluoro-N-(2-methyl-2H-tetrazol-5-yl)-1H-indazole-3-carboxamide] had a pIC50 (Table 9) of 5.60 to 6.30. Still for that read-out and setting: under `COc1ncc(Cl)cc1S(=O)(=O)Nc1cc(F)cc(-c2ccc3c(C(=O)N[C@@H]4CCN(C)C4)n[nH]c3c2F)c1F` [Example 3BL, 6-(3-((5-chloro-2-methoxy-pyridine)-3-sulfonamido)-2,5-difluorophenyl)-7-fluoro-N-((R)-1-methylpyrrolidin-3-yl)-1H-indazole-3-carboxamide] stands over 6.30; under `NC(=O)c1n[nH]c2c(F)c(-c3c(F)ccc(NS(=O)(=O)c4cc(F)cc(CO)c4Cl)c3F)ccc12` [Example 4AB], over 6.30. The molecule `COc1cccc(S(=O)(=O)Nc2ccc(F)c(-c3ccc4c(-c5ncc[nH]5)n[nH]c4c3F)c2F)n1` [Example 2AM, N-(2,4-difluoro-3-(7-fluoro-3-(1H-imidazol-2-yl)-1H-indazol-6-yl)phenyl)-6-methoxypyridine-2-sulfonamide] had a negative logarithm of the IC50 (pIC50) (Table 8) of 5.60 to 6.30. Take `COC(=O)c1n[nH]c2c(F)c(-c3c(F)ccc(NS(=O)(=O)c4cc(Cl)cnc4OC)c3F)ccc12` [Example 4, Methyl 6-(3-((5-Chloro-2-methoxypyridine)-3-sulfonamido)-2,6-difluorophenyl)-7-fluoro-1H-indazole-3-carboxylate]: for the setting “Table 8”, the pIC50 was over 6.30.

As for `Cc1c(CO)cc(F)cc1S(=O)(=O)Nc1ccc(F)c(-c2ccc3c(C(N)=O)n[nH]c3c2F)c1F` [Example 4G], where the note is “Table 9”, the negative-log IC50 (pIC50) is over 6.30. The molecule `Cc1ncc(S(=O)(=O)Nc2cc(F)cc(-c3ccc4c(-c5ncc[nH]5)n[nH]c4c3F)c2F)s1` [Example 3CJ, N-(2,5-difluoro-3-(7-fluoro-3-(1H-imidazol-2-yl)-1H-indazol-6-yl)phenyl)-2-methylthiazole-5-sulfonamide] had a negative logarithm of the IC50 (pIC50) (Table 9) of 5.60 to 6.30. As for `COc1ncc(Cl)cc1S(=O)(=O)Nc1ccc(F)c(-c2ccc3c(-c4ncc[nH]4)n[nH]c3c2F)c1` [Example 2J, 5-chloro-N-(4-fluoro-3-(7-fluoro-3-(1H-imidazol-2-yl)-1H-indazol-6-yl)phenyl)-2-methoxy-pyridine-3-sulfonamide], under “Table 8”, the pIC50 was over 6.30. The molecule `COc1ncc(F)cc1S(=O)(=O)Nc1cc(F)cc(-c2ccc3c(C(=O)N[C@H]4CCN(C)C4)n[nH]c3c2F)c1F` [Example 3BT, 6-(3-((5-fluoro-2-methoxy-pyridine)-3-sulfonamido)-2,5-difluorophenyl)-7-fluoro-N-((S)-1-methylpyrrolidin-3-yl)-1H-indazole-3-carboxamide] showed a negative logarithm of the IC50 (pIC50) (Table 9) of 5.60 to 6.30. On the same count and under the same terms, as for `COc1ccc(NS(=O)(=O)c2cc(F)cnc2OC)c(F)c1-c1ccc2c(C(N)=O)n[nH]c2c1F` [Example 3AO, 7-fluoro-6-(2-fluoro-3-((5-fluoro-2-methoxypyridine)-3-sulfonamido)-6-methoxy-phenyl)-1H-indazole-3-carboxamide], the figure is 5.60 to 6.30; as for `COc1ncc(F)cc1S(=O)(=O)Nc1cc(F)cc(-c2ccc3c(C(=O)NCCCO)n[nH]c3c2F)c1F` [Example 3AP, 6-(2,5-difluoro-3-((5-fluoro-2-methoxypyridine)-3-sulfon-amido)phenyl)-7-fluoro-N-(3-hydroxypropyl)-1H-indazole-3-carboxamide], over 6.30. The same measure, in the same setting: as for `Cc1ncc(F)cc1S(=O)(=O)Nc1cc(F)cc(-c2ccc3c(-c4ncc[nH]4)n[nH]c3c2F)c1F` [Example 27, N-(2,5-Difluoro-3-(7-fluoro-3-(1H-imidazol-2-yl)-1H-indazol-6-yl)phenyl)-5-fluoro-2-methylpyridine-3-sulfonamide], the figure is over 6.30.
